# Read-outs that look alike come from different tables or passages of the source.
# Columns and labels:
# [1] = system: A549 human lung cancer cells; experiment: In vitro antiproliferative activity (resazurin, 96 h); type: cell-based; details: read-out: IC50 grade of inhibitory effect on tumor cells, A549
# Method: (§1) Objective: to test the antiproliferative activity of the compound in the present disclosure against a variety of tumor cells. […] Amonafide and lomustine were commercially available. Test cells: human colon cancer cells (HT-29, COLO 205), human lung cancer cells (NCI-H460, A549), and human leukemia cells (HL-60, U-937). Test methods: each tumor cell was processed separately. Cells were cultured in a culture medium at 37° C. for 24 h for later use. The cells in the exponential growth phase were harvested, treated with trypsin to prepare a cell suspension, the cell suspension was centrifuged, and then the cell pellet was resuspended in a small amount of fresh culture medium as a stock cell solution. A 96-well plate was taken, and blank control groups, cell control groups and compound treatment groups were set up. […] The remaining wells were filled with 200 μL of 10% PBS. The plate was placed in an incubator overnight. 100 μL of each test compound at different dilution concentrations was added into each well of the compound treatment groups, 10 and the dilution concentrations of the compound were as shown in Table 2. […] After adding the drug, the plate was placed in an incubator to be cultured for 96 hours, 22 μL of resazurin sodium solution (Alarm blue, SIGMA R7017) was added into each well, and the plate was returned to the incubator to be cultured for another 4 h. The plate was shaken for 10 s after being taken out. A fluorescence value of each well was tested at 530/590 nm. The above operations were repeated for three times. The IC50 value of each test compound was calculated with the Prism7 software. The IC50 was divided into different grades according to value, that is: […]
# [2] = system: COLO 205 human colon cancer cells; experiment: as above; type: cell-based; details: read-out: IC50 grade of inhibitory effect on tumor cells, COLO 205
# Method: as §1
# [3] = system: HL-60 human leukemia cells; experiment: as above; type: cell-based; details: read-out: IC50 grade of inhibitory effect on tumor cells, HL-60
# Method: as §1
# [4] = system: HT-29 human colon cancer cells; experiment: as above; type: cell-based; details: read-out: IC50 grade of inhibitory effect on tumor cells, HT-29
# Method: as §1
# [5] = system: NCI-H460 human lung cancer cells; experiment: as above; type: cell-based; details: read-out: IC50 grade of inhibitory effect on tumor cells, NCI-H460
# Method: as §1
# [6] = system: U-937 human leukemia cells; experiment: as above; type: cell-based; details: read-out: IC50 grade of inhibitory effect on tumor cells, U-937
# Method: as §1
# [7] = system: COLO 205 transplanted tumor; experiment: In vivo antitumor effect in COLO 205 transplanted tumor model; set-up: species or system BALB/c nude mice; details: nude mice, COLO 205 xenograft, intragastric 10 mg/kg once a day, 21 times, last day
# Method: Objective: to further test the in vivo antitumor effects of compounds of the present disclosure
# Test compounds: I-01, I-08.
# Test animals: 5-week-old female BALB/c nude mice were fed normally for 7 days, and mice with good physical conditions were selected for experiments.
# Tumor cells: human colon cancer cells COLO 205 were subjected to cell culture in a RPMI-1640 medium containing 10% fetal bovine serum. The passaging was carried out for 1-2 times a week, with a passaging ratio of 1:3 to 1:6.
# Modeling and grouping: COLO 205 cells in a logarithmic growth phase were harvested and injected into the anterior right mammary fat pad of nude mice with an injection volume of 5×10^6 cells per animal to establish a COLO 205 transplanted tumor model. The animal status was observed regularly, tumor diameter was measured, and tumor volume was calculated. After the tumor volume reached approximately 150 mm^3, tumor-bearing mice in good health and with similar tumor volumes were selected and randomly divided into a solvent control group, an I-01 group, and an I-08 group.
# Administration: each test compound was dissolved in solvent, and each animal group was treated with corresponding compounds or blank solvent, respectively. The administration method was intragastric administration, with a dosage of 10 mg/kg, once a day, and a total of 21 times.
# Result: on the last day of the experiment, tumor diameter and tumor weight were measured, tumor growth inhibition rate (GI) and tumor weight inhibition rate (IR) were calculated.
# Tumor growth inhibition rate=100%×[1−(Tvt−Tvini)÷(Cvt−Cvini)], where Tvt represents tumor volume of the treatment group at the end of the experiment, Tvini represents initial tumor volume of the treatment group, Cvt represents tumor volume of the solvent control group at the end of the experiment, and Cvini represents initial tumor volume of the solvent control group.
# Tumor weight inhibition rate=100%×(Cw−Tw)÷Cw, where Cw represents tumor weight of the solvent control group at the end of the experiment, and Tw represents tumor weight of the treatment group at the end of the experiment.
# [8] = Homo sapiens, A549, 96 h culture, resazurin fluorescence
# [9] = Homo sapiens, COLO 205, 96 h culture, resazurin fluorescence
# [10] = Homo sapiens, HL-60, 96 h culture, resazurin fluorescence
# [11] = Homo sapiens, HT-29, 96 h culture, resazurin fluorescence
# [12] = Homo sapiens, NCI-H460, 96 h culture, resazurin fluorescence
# [13] = Homo sapiens, U-937, 96 h culture, resazurin fluorescence
# [14] = A549, 96 h culture, resazurin fluorescence
# [15] = COLO 205, 96 h culture, resazurin fluorescence
# [16] = HL-60, 96 h culture, resazurin fluorescence
# [17] = HT-29, 96 h culture, resazurin fluorescence
# [18] = NCI-H460, 96 h culture, resazurin fluorescence
# [19] = U-937, 96 h culture, resazurin fluorescence
Compound,"IC50 [1, 8] [µM]","IC50 [2, 9] [µM]","IC50 [3, 10] [µM]","IC50 [4, 11] [µM]","IC50 [5, 12] [µM]","IC50 [6, 13] [µM]",also measured
CN(C)CCN1C(=O)c2cccc3cc(N)cc(c23)C1=O [Amonafide],1 to 5,5 to 10,5 to 10,11 to 20,11 to 20,11 to 20,
CC(C)(C)OC(=O)NCCCN1CCN(CCCN2C(=O)c3cccc4cc([N+](=O)[O-])cc(c34)C2=O)CC1 [Cob280],11 to 20,11 to 20,5 to 10,5 to 10,11 to 20,5 to 10,
CC(C)(C)OC(=O)NCCCNCCCN1C(=O)c2cccc3cc([N+](=O)[O-])cc(c23)C1=O [Cob281],5 to 10,11 to 20,5 to 10,5 to 10,11 to 20,5 to 10,
O=NN(CCCl)C(=O)NCCN1C(=O)c2cccc3cc([N+](=O)[O-])cc(c23)C1=O [Compound 1],,,,,,,"IC50 ([1]; Homo sapiens, A549, 96 h): 5 to 10 µM; IC50 ([2]; Homo sapiens, COLO 205, 96 h): 21 to 50 µM; IC50 ([3]; Homo sapiens, HL-60, 96 h): 11 to 20 µM; IC50 ([4]; Homo sapiens, HT-29, 96 h): 21 to 50 µM; IC50 ([5]; Homo sapiens, NCI-H460, 96 h): 11 to 20 µM; IC50 ([6]; Homo sapiens, U-937, 96 h): 21 to 50 µM"
O=NN(CCCl)C(=O)NCCCCN1C(=O)c2cccc3cccc(c23)C1=O [Compound 1d],,,,,,,"IC50 ([1]; Homo sapiens, A549, 96 h): 21 to 50 µM; IC50 ([2]; Homo sapiens, COLO 205, 96 h): 21 to 50 µM; IC50 ([3]; Homo sapiens, HL-60, 96 h): 21 to 50 µM; IC50 ([4]; Homo sapiens, HT-29, 96 h): 21 to 50 µM; IC50 ([5]; Homo sapiens, NCI-H460, 96 h): 51 to 100 µM; IC50 ([6]; Homo sapiens, U-937, 96 h): 11 to 20 µM"
CN(CCNC(=O)N(CCCl)N=O)CCN1C(=O)c2cccc3cc([N+](=O)[O-])cc(c23)C1=O [Compound I-01],,,,,,,"IC50 [1, 14]: 0.5 to 1 µM; IC50 [2, 15]: < 0.5 µM; IC50 [3, 16]: < 0.5 µM; IC50 [4, 17]: < 0.5 µM; IC50 [5, 18]: < 0.5 µM; IC50 [6, 19]: < 0.5 µM; Tumor growth inhibition rate (%) [7]: 75.3%; Tumor weight inhibition rate (%) [7]: 69.3%"
CCN(CCNC(=O)N(C)CC)CCN1C(=O)c2cccc3cc([N+](=O)[O-])cc(c23)C1=O [Compound I-04],1 to 5,5 to 10,1 to 5,1 to 5,1 to 5,1 to 5,
CCN(CC)C(=O)N(C)CCNCN1C(=O)c2cccc3c(OC)ccc(c23)C1=O [Compound I-06],1 to 5,5 to 10,1 to 5,1 to 5,5 to 10,1 to 5,
CN(C)C(=O)N(C)CCCNCN1C(=O)c2cccc3cccc(c23)C1=O [Compound I-07],5 to 10,1 to 5,1 to 5,5 to 10,1 to 5,5 to 10,
O=NN(CCCl)C(=O)N1CCN(CCN2C(=O)c3cccc4cc([N+](=O)[O-])cc(c34)C2=O)CC1 [Compound I-08],,,,,,,"IC50 [1, 14]: 0.5 to 1 µM; IC50 [2, 15]: 0.5 to 1 µM; IC50 [3, 16]: 1 to 5 µM; IC50 [4, 17]: 1 to 5 µM; IC50 [5, 18]: 1 to 5 µM; IC50 [6, 19]: 0.5 to 1 µM; Tumor growth inhibition rate (%) [7]: 43.5%; Tumor weight inhibition rate (%) [7]: 31.2%"
O=NN(CCCl)C(=O)NC1CCCCC1 [Lomustine],> 100,> 100,21 to 50,51 to 100,51 to 100,11 to 20,

# Source: patent US20250100973A1, “DIIMIDE DERIVATIVE, AND PREPARATION METHOD THEREFOR AND USE THEREOF” (XIANGBEI WELMAN PHARMACEUTICAL CO., LTD., priority 2022, published 2025)
